Test results as given in patent US20100125053A1, “Allosteric Modulation of the Dopamine Transporter Protein for the Treatment of HIV-1 Induced Neurologic Dysfunction” (priority 2008, published 2010).

Test system: striatal synaptosomes
Test: [3H]leucine uptake assay in rat striatal synaptosomes (electrochemical gradients)
Format: cell-based
Details: 15 min preincubation, [3H]leucine 10 min
Procedure: [^3H]Leucine Uptake Assay. […] The uptake assay was performed in duplicate with a final volume of 250 μl. […] TatΔ31-61 and leucine were chosen as negative and positive controls, respectively. Assay tubes were placed in an oxygenated metabolic shaker at 34° C. for 15 min. Subsequently, 1 μM [^3H]leucine (final concentration, 25 μl) was added to each tube and incubation was continued for 10 min at 34° C. in the metabolic shaker. […] Nonspecific uptake for [^3H]leucine and [^3H]DA was determined in the presence of 10 mM L-lysine and 10 μM nomifensine, respectively. Incubation was terminated by the addition of 3 ml of ice-cold assay buffer, followed by immediate filtration through Whatman GF/B glass fiber filters. Filters were washed 3 times with 3 ml ice-cold assay buffer using a Brandel cell harvester.

Question: For `CC(C)C[C@H](N)C(=O)O` [leucine], which inhibition at 1 µM (1 μM) is on record?
Answer: ~10%

Question: And the inhibition at 10 µM (10 μM, read-out: inhibition / decrease of [3H]leucine uptake)?
Answer: ~40%
